Measurements: patent US11464782B2, “Method of treating pain or interstitial cystitis using indole compound” (Japan Tobacco Inc., priority 2018, dated 2022)
Where two headings read alike, the source gives them in different places.

Experiments:
[1] = system: subjects with active rheumatoid arthritis; assay: Adverse events in rheumatoid arthritis human clinical trial; assay type: in vivo
Protocol: (§1) Compound A was evaluated in a multicenter, randomized, double-blind, placebo-controlled, parallel-group study in subjects with active rheumatoid arthritis. Subjects were randomized to receive orally placebo or an amount of monohydrochloride Compound A sufficient to provide 50 mg, 100 mg, 150 mg, or 200 mg of free form, once daily for 12 weeks.
The incidence of serious adverse events (SAEs) and severe treatment-emergent adverse events (TEAEs) in the clinical study was low (3.4% and 2.9%, respectively) in subjects who received treatment with one of the doses of Compound A in the clinical study.

[2] = system: NGF-induced mechanical hyperalgesia; assay: NGF-induced mechanical hyperalgesia in rats (pressure analgesy-meter, paw withdrawal threshold); assay type: in vivo, rat
Protocol: In order to induce a pain-related behavior (withdrawal behavior), NGF was injected into the plantar area of the left hind paw of rats and the thermal latencies/mechanical thresholds were measured. The effects of Compound A on these withdrawal behaviors were investigated. At 2 days before the injection of NGF, the thermal latencies or mechanical thresholds were measured for acclimation to the experimental environment. On the day before injection of NGF, body weights and values of the thermal latencies or mechanical thresholds were obtained. 50 μL of NGF solution was injected intraplantar to left hind paw of rats. 0.5 μg/site of NGF was selected in the evaluation of thermal stimuli and 1 μg/site was selected in that of mechanical stimuli. A monohydrochloride of Compound A (1, 3, or 10 mg/kg) was administered orally at the same time as the NGF injection. The latencies to thermal stimuli were measured at 3 and 6 hours after injection of NGF solution, and the thresholds to mechanical stimuli were measured at 1, 3 and 6 hours after injection of NGF solution. The evaluation was performed as a blind test of each group. The mechanical threshold was measured using a pressure analgesy-meter. A mechanical stimulus (pressure) increased at a constant rate was added to the hind paw, and the pressure under load until animals withdrew its hind paw or vocalization was recorded as the mechanical threshold (mmHg).

[3] = system: CIA model rats; assay: Analgesic effect in rat collagen-induced arthritis (CIA) model, paw withdrawal threshold by Randall-Selitto method; assay type: in vivo; settings: rats with CIA; 10 or 30 mg/kg oral once per day Days 22-28; measured Day 28
Protocol: The analgesic effect of Compound A on hypersensitivity to pain during the onset of arthritis in a rat CIA model was evaluated. Hypersensitivity to pain was evaluated using the paw withdrawal threshold (PWT) in relation to mechanical stimulus using the Randall-Selitto method.
Female LEW/CrlCrlj rats (Charles River Laboratories Japan, Inc.) were used for the experiment. A monohydrochloride of Compound A was dissolved in 0.5% methyl cellulose (MC) to prepare 2 mg/mL and 6 mg/mL solutions of Compound A. Type II collagen derived from joint bovine cartilage (Collagen Research Center) was dissolved in acetic acid to prepare a 2 mg/mL type II collagen solution. Equal volumes of the 2 mg/mL type II collagen solution and incomplete Freund's adjuvant were mixed to prepare a 1 mg/mL type II collagen emulsion.
On Day 1, the type II collagen emulsion was intradermally injected into the animals in the vehicle group, the Compound A 10 mg/kg administration group, and the Compound A 30 mg/kg administration group. On Day 8, the type II collagen emulsion was intradermally injected into the animals in the vehicle group, the Compound A 10 mg/kg administration group, and the Compound A 30 mg/kg administration group. […] On Day 28, the analgesic effect was measured using a Randall-Selitto analgesy-meter (TK-201, UNICOM). The means values and standard deviations of the PWT values for each group were calculated.

[4] = Trough plasma concentrations of Compound A in the human clinical study; assay type: in vivo; settings: for concentration at 2 week / concentration at 4 week / concentration at 8 week / concentration at 12 week: human, plasma, oral, 50 mg, human plasma
Protocol: as §1
In the human clinical study described in Example 3, blood samples were collected from subjects prior to dosing at weeks 2, 4, 8, and 12 for the quantification of plasma Compound A levels.

[5] = subjects who received one of the doses (50-200 mg once daily, 12 weeks)

Trough concentration, mean ratio relative to Compound A 50 mg QD at the same visit ([4]; 50 mg QD, 2 week): 1.00 | Trough concentration, mean ratio relative to Compound A 50 mg QD at the same visit ([4]; 50 mg QD, 4 week): 1.00 | Trough concentration, mean ratio relative to Compound A 50 mg QD at the same visit ([4]; 50 mg QD, 8 week): 1.00 | Trough concentration, mean ratio relative to Compound A 50 mg QD at the same visit ([4]; 50 mg QD, 12 week): 1.00 | Trough concentration, mean ratio relative to Compound A 50 mg QD at the same visit ([4]; 100 mg QD, 2 week): 1.52 | Trough concentration, mean ratio relative to Compound A 50 mg QD at the same visit ([4]; 100 mg QD, 4 week): 1.60 | Trough concentration, mean ratio relative to Compound A 50 mg QD at the same visit ([4]; 100 mg QD, 8 week): 1.77 | Trough concentration, mean ratio relative to Compound A 50 mg QD at the same visit ([4]; 100 mg QD, 12 week): 1.50 | Trough concentration, mean ratio relative to Compound A 50 mg QD at the same visit ([4]; 150 mg QD, 2 week): 2.51 | Trough concentration, mean ratio relative to Compound A 50 mg QD at the same visit ([4]; 150 mg QD, 4 week): 2.28 | Trough concentration, mean ratio relative to Compound A 50 mg QD at the same visit ([4]; 150 mg QD, 8 week): 2.10 | Trough concentration, mean ratio relative to Compound A 50 mg QD at the same visit ([4]; 150 mg QD, 12 week): 2.63 | Trough concentration, mean ratio relative to Compound A 50 mg QD at the same visit ([4]; 200 mg QD, 2 week): 3.89 | Trough concentration, mean ratio relative to Compound A 50 mg QD at the same visit ([4]; 200 mg QD, 4 week): 3.33 | Trough concentration, mean ratio relative to Compound A 50 mg QD at the same visit ([4]; 200 mg QD, 8 week): 3.11 | Trough concentration, mean ratio relative to Compound A 50 mg QD at the same visit ([4]; 200 mg QD, 12 week): 2.98 | concentration at 2 week ([4]; 50 mg QD, 2 week, BLQ (<2.00 ng/mL) set to 0, read-out: Trough Plasma Concentrations, Min-Max): 0 to 387 ng/mL | concentration at 2 week ([4]; 50 mg QD, 2 week, read-out: Trough Plasma Concentrations, Mean (SD)): 134 ng/mL | concentration at 2 week ([4]; 50 mg QD, 2 week, read-out: Trough Plasma Concentrations, Median): 118 ng/mL | concentration at 4 week ([4]; 50 mg QD, 4 week, BLQ (<2.00 ng/mL) set to 0, read-out: Trough Plasma Concentrations, Min-Max): 0 to 356 ng/mL | concentration at 4 week ([4]; 50 mg QD, 4 week, read-out: Trough Plasma Concentrations, Mean (SD)): 135 ng/mL | concentration at 4 week ([4]; 50 mg QD, 4 week, read-out: Trough Plasma Concentrations, Median): 119 ng/mL | concentration at 8 week ([4]; 50 mg QD, 8 week, BLQ (<2.00 ng/mL) set to 0, read-out: Trough Plasma Concentrations, Min-Max): 0 to 436 ng/mL | concentration at 8 week ([4]; 50 mg QD, 8 week, read-out: Trough Plasma Concentrations, Mean (SD)): 129 ng/mL | concentration at 8 week ([4]; 50 mg QD, 8 week, read-out: Trough Plasma Concentrations, Median): 108 ng/mL | concentration at 12 week ([4]; 50 mg QD, 12 week, BLQ (<2.00 ng/mL) set to 0, read-out: Trough Plasma Concentrations, Min-Max): 0 to 531 ng/mL | concentration at 12 week ([4]; 50 mg QD, 12 week, read-out: Trough Plasma Concentrations, Mean (SD)): 119 ng/mL | concentration at 12 week ([4]; 50 mg QD, 12 week, read-out: Trough Plasma Concentrations, Median): 100 ng/mL
Structure (SMILES): C[C@@H](C(=O)N(C)c1ccc2cc(-c3n[nH]c4c3CCC(C)(C)C4)[nH]c2c1)N1CCOCC1 [Compound A, N-[2-(6,6-dimethyl-4,5,6,7-tetrahydro-1H-indazol-3-yl)-1H-indol-6-yl]-N-methyl-(2S)-2-(morpholin-4-yl)propanamide]
safety and tolerability ([1]; doses up to 200 mg over 12 weeks of treatment): safe and tolerated | incidence of serious adverse events (SAEs) [1, 5]: 3.4% | incidence of severe treatment-emergent adverse events (TEAEs) [1, 5]: 2.9% | dose from which significant effects were observed (mechanical threshold) ([2]; at 6 hours after NGF injection, oral): ≥ 3 mg/kg | effect on the decrease in the mechanical thresholds induced by NGF ([2]; compared with the vehicle, 1, 3, 10 mg/kg oral, dose related): prevented the decrease in the mechanical thresholds induced by NGF | hyperalgesia (paw withdrawal threshold to mechanical stimulus) [3]: attenuated hyperalgesia | dose dependence and maintenance of mean trough concentrations ([4]; 50 mg to 200 mg once daily, weeks 2-12): Mean trough concentrations increased as dose increased from 50 mg to 200 mg and trough concentrations were maintained throughout the study
